Test results taken from patent publication US20230149324A1, “COMPOSITIONS COMPRISING THYMOL AND AMINO ACIDS FOR USE IN THE TREATMENT OF INFLAMMATORY OR FUNCTIONAL INTESTINAL DISORDERS” (VETAGRO INTERNATIONAL S.R.L., priority 2020, published 2023).

Key:
[1] = test system: OR1G1 (Olfactory receptor 1G1) mRNA; assay: Gene expression of gut chemosensing marker OR1G1 in duodenal and ileal mucosa of weaned piglets fed thymol (real-time PCR); assay type: in vivo, pig; settings: d14, compared to the control group
Experimental: (§1) At the end of the study, 8 animals from each treatment group were sacrificed, samples were collected, and analysed. Duodenal and ileal mucosal scrapings were collected. The duodenum and ileum were longitudinally cut to expose the mucosa, washed with a phosphate-buffered saline solution to remove mucus and digesta, then scraped gently, packed, immediately frozen in liquid nitrogen and stored at -80° C. until the analyses of gene and protein expression. Gene expression was analysed using the method reported by […] et al. [The Journal of Nutrition. 2011; 141:2139-45]. […] The RNA yield and quality were determined spectrophotometrically by measuring the absorbance at 260 and 280 nm (A260 and A280 nm, respectively) (Microvolume Mode with SmartPath® Technology, Denovix). […] The average threshold cycle (CT) was determined for each gene of interest, and the geometric average was calculated for HK by assuming that CT is the number of cycles required to reach a fixed arbitrary threshold. Delta CT was calculated, then a modification of the 2^-ΔΔCT method [Livak K J, et al., Methods 2001; 25:402-8] was used to analyse the relative expression (fold changes), which was calculated relative to the control group. […] Animals were blocked in a completely randomised design and data were analysed using GraphPad Prism® software (GraphPad Software, Inc., La Jolla, Calif., USA). […]

[2] = test system: FAAH mRNA; assay: Gene expression of ECS enzyme FAAH in duodenal and ileal mucosa of weaned piglets fed thymol (real-time PCR); assay type: in vivo, pig
Experimental: as §1

[3] = test system: TRPV1 mRNA; assay: Gene expression of gut chemosensing marker TRPV1 in duodenal and ileal mucosa of weaned piglets fed thymol (real-time PCR); assay type: in vivo, pig; settings: for TRPV1 mRNA level, ileum: d14, compared to the control group, P=0.0183
Experimental: (§2) At the end of the study, 8 animals from each treatment group were sacrificed, samples were collected, and analysed. Duodenal and ileal mucosal scrapings were collected. The duodenum and ileum were longitudinally cut to expose the mucosa, washed with a phosphate-buffered saline solution to remove mucus and digesta, then scraped gently, packed, immediately frozen in liquid nitrogen and stored at -80° C. until the analyses of gene and protein expression. Gene expression was analysed using the method reported by […] et al. [The Journal of Nutrition. 2011; 141:2139-45]. Duodenal and ileal scraping samples obtained on d14 of the study were disrupted by grinding them in liquid nitrogen with mortar and pestle, and then homogenised using a TissueLyser (Qiagen, Hilden, Germany). Total RNA was isolated using a NucleoSpin® RNA Kit (Macherey-Nagel, Duren, Germany) according to the manufacturer's instructions. Genomic DNA contamination was removed by treating the samples with the deoxyribonuclease supplied in the extraction kit ([…], RNase-free; Macherey-Nagel). The RNA yield and quality were determined spectrophotometrically by measuring the absorbance at 260 and 280 nm (A260 and A280 nm, respectively) (Microvolume Mode with SmartPath® Technology, Denovix). […] The average threshold cycle (CT) was determined for each gene of interest, and the geometric average was calculated for HK by assuming that CT is the number of cycles required to reach a fixed arbitrary threshold. Delta CT was calculated, then a modification of the 2^-ΔΔCT method [Livak K J, et al., Methods 2001; 25:402-8] was used to analyse the relative expression (fold changes), which was calculated relative to the control group. […] Animals were blocked in a completely randomised design and data were analysed using GraphPad Prism® software (GraphPad Software, Inc., La Jolla, Calif., USA). Data were analysed using one-way ANOVA followed by Tukey's post hoc test to detect differences among treatments. […]

[4] = piglets, 14-day experiment, up to 510 mg thymol/kg feed
Experimental: […] piglets (Duroc—Large White) weaned at 28 days of age and with a body weight (BW) of 7.71±1.00 kg were divided into 40 pens (4 piglets per pen, castrated males and females were placed in separate pens) and randomly assigned to one of the following experimental groups (n=32): control group fed with the basal diet (T1), a group fed with the basal diet supplemented with 25.5 mg of thymol/kg feed (T2), a group fed with the basal diet supplemented with 51 mg of thymol/kg feed (T3), a group fed with the basal diet supplemented with 153 mg of thymol/kg feed (T4) and a group fed with the basal diet supplemented with 510 mg of thymol/kg feed (T5). Thymol was provided in a form embedded (microencapsulated) in a lipid matrix (Vetagro SpA, Reggio Emilia, Italy). Concentrations of thymol were selected to meet or exceed the upper limit of inclusion in food and feed established by the European Agency for the Evaluation of Medicinal Products and for the feed. […] The health condition of the animals was monitored during the study. […] Growth parameters, such as FI, ADFI, ADG and F:G (FI—feed intake; ADFI—Average daily feed intake; ADG—Average daily gain; F:G—Feed to gain ratio), were measured in the animals housed in each pen on day 14 (d14) of the experiment.

[5] = test system: CB2 mRNA; assay: Gene expression of cannabinoid receptor CB2 in duodenal and ileal mucosa of weaned piglets fed thymol (real-time PCR); assay type: in vivo, pig; settings: d14, compared to the control group; for CB2 mRNA level, duodenum: P=0.004; for CB2 mRNA level, ileum: P=0.0162
Experimental: as §2, with “Denovix). One microgram of RNA was reverse transcribed using the iScript cDNA Synthesis Kit (Bio-Rad Laboratories Inc., Hercules, Calif., USA) according to the manufacturer's instructions. Real-time PCR was performed using an iCycler Thermal Cycler system and SybrGreen Supermix (Bio-Rad Laboratories Inc.). The thermocycling protocol provided for an initial denaturation step for 1 minute and 30 seconds at 95° C., followed by 40 denaturation cycles at 95° C. for 15 seconds, and 30 seconds of annealing and extension at 60° C. After amplification, a melt curve analysis was performed for all samples, with slow heating from 55° C. to 95° C. at a rate of 0.5° C./s to validate the absence of non-specific products.” for “Denovix).”

[6] = test system: CB1 mRNA; assay: Gene expression of cannabinoid receptor CB1 in duodenal and ileal mucosa of weaned piglets fed thymol (real-time PCR); assay type: in vivo, pig; settings: d14, compared to the control group; for CB1 mRNA level, ileum: P=0.0054
Experimental: as §2

[7] = group T4, 153 mg of thymol/kg feed
[8] = group T5, 510 mg of thymol/kg feed

Structure (SMILES): Cc1ccc(C(C)C)c(O)c1 [thymol]
- OR1G1 mRNA level, ileum ([1]; group T4, 153 mg thymol/kg feed, P=0.0235): expressed at higher levels
- OR1G1 mRNA level, duodenum ([1]; group T5, 510 mg thymol/kg feed, P=0.0210): expressed at higher levels
- FAAH mRNA level, ileum ([2]; group T4, 153 mg of thymol/kg feed, d14, compared to the control group, P=0.0028): significantly increased
- FAAH mRNA level, duodenum ([2]; thymol groups T2-T5 (25.5-510 mg/kg feed), d14): Differences in FAAH mRNA levels were not observed
- TRPV1 mRNA level, ileum ([3]; group T4, 153 mg thymol/kg feed): increased
- TRPV1 mRNA level, ileum ([3]; group T5, 510 mg thymol/kg feed): increased
- TRPV1 mRNA level, duodenum ([3]; group T5, 510 mg thymol/kg of feed, d14, P=0.0382): increased
- mortality [4]: no mortality was recorded
- CB2 mRNA level, duodenum [5, 7]: Significantly increased
- CB2 mRNA level, ileum [5, 7]: Significantly increased
- CB2 mRNA level, duodenum [5, 8]: Significantly increased
- CB2 mRNA level, ileum [5, 8]: Significantly increased
- CB1 mRNA level, ileum [6, 7]: significantly increased
- CB1 mRNA level, ileum [6, 8]: significantly increased
- CB1 mRNA level, duodenum ([6]; group T5, 510 mg of thymol/kg feed, P=0.0209): significantly increased
